According to ChEMBL document CHEMBL4507303, “Data for DCP probe TP-004” (2021):

Experiments:
[1] = tested on: Tyrosine-protein kinase ABL1 (Homo sapiens), P00519 [H396P]; settings: Compound concentration 1000.0 nM
[2] = biological target: Mitogen-activated protein kinase kinase kinase 5 (Homo sapiens) (UniProt Q99683); settings: Compound concentration 1000.0 nM
[3] = biological target: Calcium/calmodulin-dependent protein kinase type II subunit alpha (Homo sapiens) (UniProt Q9UQM7); settings: Compound concentration 1000.0 nM
Calcium/calmodulin-dependent protein kinase type II subunit alpha (Homo sapiens), sequence (Q9UQM7 whole entry): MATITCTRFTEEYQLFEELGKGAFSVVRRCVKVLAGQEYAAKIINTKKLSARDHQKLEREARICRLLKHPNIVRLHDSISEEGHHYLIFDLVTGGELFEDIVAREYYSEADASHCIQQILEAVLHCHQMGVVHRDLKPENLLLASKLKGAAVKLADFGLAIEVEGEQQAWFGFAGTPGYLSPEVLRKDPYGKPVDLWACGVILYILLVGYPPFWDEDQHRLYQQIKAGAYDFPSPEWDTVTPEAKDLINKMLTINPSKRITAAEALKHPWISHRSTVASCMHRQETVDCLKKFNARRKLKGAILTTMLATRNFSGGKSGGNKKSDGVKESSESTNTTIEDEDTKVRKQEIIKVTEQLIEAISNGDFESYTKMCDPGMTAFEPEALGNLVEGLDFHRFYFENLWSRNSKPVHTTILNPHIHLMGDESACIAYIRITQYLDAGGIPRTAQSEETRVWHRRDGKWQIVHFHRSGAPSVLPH

[4] = biological target: Cyclin-dependent kinase 4 (Homo sapiens) (UniProt P11802); settings: Compound concentration 1000.0 nM
Cyclin-dependent kinase 4 (Homo sapiens), sequence (P11802 whole entry): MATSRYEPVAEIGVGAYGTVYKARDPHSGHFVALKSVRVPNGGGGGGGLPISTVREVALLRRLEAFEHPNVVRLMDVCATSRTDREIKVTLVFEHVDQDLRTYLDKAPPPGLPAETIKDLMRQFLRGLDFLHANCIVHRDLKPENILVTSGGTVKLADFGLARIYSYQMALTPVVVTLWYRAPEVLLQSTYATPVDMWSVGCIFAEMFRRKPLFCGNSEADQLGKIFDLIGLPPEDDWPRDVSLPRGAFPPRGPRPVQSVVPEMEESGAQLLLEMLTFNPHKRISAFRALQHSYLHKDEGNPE

[5] = biological target: Dual specificity protein kinase CLK2 (Homo sapiens) (UniProt P49760); settings: Compound concentration 1000.0 nM
[6] = biological target: Casein kinase I isoform gamma-3 (Homo sapiens) (UniProt Q9Y6M4); settings: Compound concentration 1000.0 nM
[7] = biological target: Casein kinase II subunit alpha (Homo sapiens) (UniProt P68400); settings: Compound concentration 1000.0 nM
[8] = tested on: Epidermal growth factor receptor (Homo sapiens), P00533 [G719S]; settings: Compound concentration 1000.0 nM
[9] = biological target: Focal adhesion kinase 1 (Homo sapiens) (UniProt Q05397); settings: Compound concentration 1000.0 nM
[10] = biological target: Receptor-type tyrosine-protein kinase FLT3 (Homo sapiens) (UniProt P36888); settings: Compound concentration 1000.0 nM
[11] = biological target: Serine/threonine-protein kinase haspin (Homo sapiens) (UniProt Q8TF76); settings: Compound concentration 1000.0 nM
[12] = tested on: Mast/stem cell growth factor receptor Kit (Homo sapiens), P10721 [D816V]; settings: Compound concentration 1000.0 nM
[13] = biological target: Mast/stem cell growth factor receptor Kit (Homo sapiens) (UniProt P10721); settings: Compound concentration 1000.0 nM
[14] = biological target: Serine/threonine-protein kinase LATS1 (Homo sapiens) (UniProt O95835); settings: Compound concentration 1000.0 nM
[15] = biological target: Tyrosine-protein kinase Lck (Homo sapiens) (UniProt P06239); settings: Compound concentration 1000.0 nM
[16] = biological target: Dual specificity mitogen-activated protein kinase kinase 2 (Homo sapiens) (UniProt P36507); settings: Compound concentration 1000.0 nM
[17] = biological target: MAP kinase-interacting serine/threonine-protein kinase 1 (Homo sapiens) (UniProt Q9BUB5); settings: Compound concentration 1000.0 nM
[18] = biological target: Mitogen-activated protein kinase kinase kinase 11 (Homo sapiens) (UniProt Q16584); settings: Compound concentration 1000.0 nM
Mitogen-activated protein kinase kinase kinase 11 (Homo sapiens), sequence (Q16584 whole entry, looked up): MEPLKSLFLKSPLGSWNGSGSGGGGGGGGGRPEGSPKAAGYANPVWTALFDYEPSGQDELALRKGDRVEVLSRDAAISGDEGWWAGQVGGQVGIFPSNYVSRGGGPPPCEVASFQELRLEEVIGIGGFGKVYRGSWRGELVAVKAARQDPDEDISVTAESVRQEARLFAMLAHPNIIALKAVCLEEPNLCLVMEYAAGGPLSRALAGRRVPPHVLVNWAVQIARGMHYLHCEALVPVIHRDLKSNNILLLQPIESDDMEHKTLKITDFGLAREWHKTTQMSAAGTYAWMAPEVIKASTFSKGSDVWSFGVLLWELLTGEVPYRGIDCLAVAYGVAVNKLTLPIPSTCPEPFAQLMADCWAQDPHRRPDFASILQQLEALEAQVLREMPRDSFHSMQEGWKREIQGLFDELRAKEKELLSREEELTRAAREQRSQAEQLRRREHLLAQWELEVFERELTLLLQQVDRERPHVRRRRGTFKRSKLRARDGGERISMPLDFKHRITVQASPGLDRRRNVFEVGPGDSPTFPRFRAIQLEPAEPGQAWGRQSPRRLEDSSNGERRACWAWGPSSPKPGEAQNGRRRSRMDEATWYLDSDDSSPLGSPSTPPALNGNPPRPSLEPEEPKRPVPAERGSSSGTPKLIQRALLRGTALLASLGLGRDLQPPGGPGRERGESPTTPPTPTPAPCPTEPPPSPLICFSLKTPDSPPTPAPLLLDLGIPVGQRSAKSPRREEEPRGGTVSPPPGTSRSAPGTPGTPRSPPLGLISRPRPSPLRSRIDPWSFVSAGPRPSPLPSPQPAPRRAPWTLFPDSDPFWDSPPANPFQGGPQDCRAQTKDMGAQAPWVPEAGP

[19] = biological target: Serine/threonine-protein kinase Nek4 (Homo sapiens) (UniProt P51957); settings: Compound concentration 1000.0 nM
[20] = biological target: Mitogen-activated protein kinase kinase kinase 14 (Homo sapiens) (UniProt Q99558); settings: Compound concentration 1000.0 nM
[21] = biological target: Cyclin-dependent kinase 15 (Homo sapiens) (UniProt Q96Q40); settings: Compound concentration 1000.0 nM
[22] = tested on: Phosphatidylinositol 4,5-bisphosphate 3-kinase catalytic subunit alpha isoform (Homo sapiens), P42336 [H1047Y]; settings: Compound concentration 1000.0 nM
[23] = biological target: Serine/threonine-protein kinase pim-3 (Homo sapiens) (UniProt Q86V86); settings: Compound concentration 1000.0 nM
[24] = biological target: Serine/threonine-protein kinase N1 (Homo sapiens) (UniProt Q16512); settings: Compound concentration 1000.0 nM
Serine/threonine-protein kinase N1 (Homo sapiens), sequence (Q16512 2-942 limits assumed): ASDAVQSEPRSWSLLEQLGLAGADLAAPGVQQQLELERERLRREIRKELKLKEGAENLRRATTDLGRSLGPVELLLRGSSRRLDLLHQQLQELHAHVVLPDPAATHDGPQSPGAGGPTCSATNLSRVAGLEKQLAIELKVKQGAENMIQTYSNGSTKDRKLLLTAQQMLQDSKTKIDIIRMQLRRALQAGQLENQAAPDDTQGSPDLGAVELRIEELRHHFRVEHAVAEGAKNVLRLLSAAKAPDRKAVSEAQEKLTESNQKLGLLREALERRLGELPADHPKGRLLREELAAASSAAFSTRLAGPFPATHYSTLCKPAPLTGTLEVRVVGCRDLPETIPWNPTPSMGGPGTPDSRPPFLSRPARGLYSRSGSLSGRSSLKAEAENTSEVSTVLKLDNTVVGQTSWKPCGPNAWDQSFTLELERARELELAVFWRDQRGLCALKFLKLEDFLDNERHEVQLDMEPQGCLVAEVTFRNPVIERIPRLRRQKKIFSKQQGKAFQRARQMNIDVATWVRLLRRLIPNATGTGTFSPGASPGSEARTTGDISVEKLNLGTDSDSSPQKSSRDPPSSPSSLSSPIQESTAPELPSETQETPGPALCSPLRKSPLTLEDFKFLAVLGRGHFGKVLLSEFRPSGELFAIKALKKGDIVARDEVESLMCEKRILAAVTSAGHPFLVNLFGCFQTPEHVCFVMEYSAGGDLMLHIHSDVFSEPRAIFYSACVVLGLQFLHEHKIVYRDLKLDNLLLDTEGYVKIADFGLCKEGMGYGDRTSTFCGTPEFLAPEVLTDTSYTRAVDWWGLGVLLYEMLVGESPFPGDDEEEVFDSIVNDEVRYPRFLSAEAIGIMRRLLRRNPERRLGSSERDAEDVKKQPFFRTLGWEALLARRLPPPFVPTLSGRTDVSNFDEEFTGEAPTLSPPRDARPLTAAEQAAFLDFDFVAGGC

[25] = biological target: Serine/threonine-protein kinase PLK3 (Homo sapiens) (UniProt Q9H4B4); settings: Compound concentration 1000.0 nM
[26] = biological target: Protein kinase C epsilon type (Homo sapiens) (UniProt Q02156); settings: Compound concentration 1000.0 nM
[27] = biological target: cGMP-dependent protein kinase 1 (Homo sapiens) (UniProt Q13976); settings: Compound concentration 1000.0 nM
[28] = biological target: Serine/threonine-protein kinase RIO3 (Homo sapiens) (UniProt O14730); settings: Compound concentration 1000.0 nM
[29] = biological target: Rho-associated protein kinase 2 (Homo sapiens) (UniProt O75116); settings: Compound concentration 1000.0 nM
[30] = biological target: Serine/threonine-protein kinase SBK1 (Homo sapiens) (UniProt Q52WX2); settings: Compound concentration 1000.0 nM
[31] = biological target: Proto-oncogene tyrosine-protein kinase Src (Homo sapiens) (UniProt P12931); settings: Compound concentration 1000.0 nM
[32] = biological target: Serine/threonine-protein kinase 35 (Homo sapiens) (UniProt Q8TDR2); settings: Compound concentration 1000.0 nM
[33] = biological target: Serine/threonine-protein kinase TAO1 (Homo sapiens) (UniProt Q7L7X3); settings: Compound concentration 1000.0 nM
[34] = biological target: Serine/threonine-protein kinase tousled-like 2 (Homo sapiens) (UniProt Q86UE8); settings: Compound concentration 1000.0 nM
[35] = biological target: Testis-specific serine/threonine-protein kinase 1 (Homo sapiens) (UniProt Q9BXA7); settings: Compound concentration 1000.0 nM
Testis-specific serine/threonine-protein kinase 1 (Homo sapiens), sequence (Q9BXA7 whole entry): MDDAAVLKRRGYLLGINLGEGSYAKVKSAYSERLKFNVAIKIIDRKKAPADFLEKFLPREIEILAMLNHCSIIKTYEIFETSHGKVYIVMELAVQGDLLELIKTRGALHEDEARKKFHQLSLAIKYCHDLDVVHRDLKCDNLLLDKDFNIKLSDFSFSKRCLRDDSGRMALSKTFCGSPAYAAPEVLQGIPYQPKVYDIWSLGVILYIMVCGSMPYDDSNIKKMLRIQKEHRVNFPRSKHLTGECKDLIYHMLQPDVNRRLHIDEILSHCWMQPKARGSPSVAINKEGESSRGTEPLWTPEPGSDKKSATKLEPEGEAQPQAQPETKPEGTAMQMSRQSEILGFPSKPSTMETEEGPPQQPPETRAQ

[36] = biological target: Testis-specific serine/threonine-protein kinase 3 (Homo sapiens) (UniProt Q96PN8); settings: Compound concentration 1000.0 nM
[37] = biological target: Serine/threonine-protein kinase ULK2 (Homo sapiens) (UniProt Q8IYT8); settings: Compound concentration 1000.0 nM
Serine/threonine-protein kinase ULK2 (Homo sapiens), sequence (Q8IYT8 whole entry): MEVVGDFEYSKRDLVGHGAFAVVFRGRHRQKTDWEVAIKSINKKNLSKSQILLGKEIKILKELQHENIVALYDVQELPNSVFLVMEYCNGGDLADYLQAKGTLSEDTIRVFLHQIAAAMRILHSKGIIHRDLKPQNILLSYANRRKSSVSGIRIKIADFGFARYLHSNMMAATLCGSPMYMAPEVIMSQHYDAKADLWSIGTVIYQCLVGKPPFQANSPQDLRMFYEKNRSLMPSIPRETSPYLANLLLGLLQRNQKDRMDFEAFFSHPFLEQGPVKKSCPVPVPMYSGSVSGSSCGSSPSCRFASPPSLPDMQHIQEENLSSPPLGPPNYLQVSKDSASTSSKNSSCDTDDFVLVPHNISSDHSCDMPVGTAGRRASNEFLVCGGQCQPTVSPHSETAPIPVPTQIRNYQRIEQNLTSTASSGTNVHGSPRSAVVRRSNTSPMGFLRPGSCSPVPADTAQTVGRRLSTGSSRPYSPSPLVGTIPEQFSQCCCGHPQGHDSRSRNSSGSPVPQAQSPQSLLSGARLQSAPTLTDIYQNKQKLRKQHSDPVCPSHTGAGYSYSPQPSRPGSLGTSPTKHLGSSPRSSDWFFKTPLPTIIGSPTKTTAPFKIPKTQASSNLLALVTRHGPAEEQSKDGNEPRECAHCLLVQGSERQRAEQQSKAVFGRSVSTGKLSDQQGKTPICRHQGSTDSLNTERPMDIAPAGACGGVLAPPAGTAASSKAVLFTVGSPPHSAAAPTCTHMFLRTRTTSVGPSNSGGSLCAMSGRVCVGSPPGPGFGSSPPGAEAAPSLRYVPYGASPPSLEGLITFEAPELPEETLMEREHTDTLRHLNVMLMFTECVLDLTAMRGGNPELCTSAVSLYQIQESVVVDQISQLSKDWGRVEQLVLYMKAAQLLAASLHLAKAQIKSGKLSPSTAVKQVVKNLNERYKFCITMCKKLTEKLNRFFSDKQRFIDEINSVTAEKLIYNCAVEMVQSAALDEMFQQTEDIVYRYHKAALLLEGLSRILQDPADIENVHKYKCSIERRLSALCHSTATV

[38] = biological target: Serine/threonine-protein kinase WNK1 (Homo sapiens) (UniProt Q9H4A3); settings: Compound concentration 1000.0 nM
[39] = biological target: 5-hydroxytryptamine receptor 2B (Homo sapiens) (UniProt P41595); settings: Compound concentration 10.0 uM
5-hydroxytryptamine receptor 2B (Homo sapiens), sequence (P41595 whole entry): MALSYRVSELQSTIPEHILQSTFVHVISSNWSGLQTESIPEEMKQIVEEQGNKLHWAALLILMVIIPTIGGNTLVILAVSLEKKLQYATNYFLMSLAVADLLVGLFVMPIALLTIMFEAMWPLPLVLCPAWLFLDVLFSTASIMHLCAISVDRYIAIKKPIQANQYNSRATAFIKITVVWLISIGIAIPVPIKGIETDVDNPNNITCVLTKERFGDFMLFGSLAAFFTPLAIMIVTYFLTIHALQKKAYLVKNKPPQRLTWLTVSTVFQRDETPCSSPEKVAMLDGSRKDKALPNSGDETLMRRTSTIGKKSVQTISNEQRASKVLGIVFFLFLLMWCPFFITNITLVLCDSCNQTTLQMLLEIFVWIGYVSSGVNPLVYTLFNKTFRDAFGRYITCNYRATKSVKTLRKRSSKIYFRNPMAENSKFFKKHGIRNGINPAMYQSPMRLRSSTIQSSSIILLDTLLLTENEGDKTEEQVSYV

[40] = biological target: 5-hydroxytryptamine receptor 7 (Homo sapiens) (UniProt P34969); settings: Compound concentration 10.0 uM
[41] = biological target: Kappa-type opioid receptor (Homo sapiens) (UniProt P41145); settings: Compound concentration 10.0 uM
[42] = biological target: GABA-A receptor; anion channel (Rattus norvegicus) (UniProt O09028+P15431+P18506+P18508+P19969+P20236+P23574+P23576+P28471+P28473+P30191+P62813+P63079+P63138+Q91ZM7+Q9ES14); settings: Compound concentration 10.0 uM
[43] = biological target: Alpha-2A adrenergic receptor (Homo sapiens) (UniProt P08913); settings: Compound concentration 10.0 uM
Alpha-2A adrenergic receptor (Homo sapiens), sequence (P08913 whole entry): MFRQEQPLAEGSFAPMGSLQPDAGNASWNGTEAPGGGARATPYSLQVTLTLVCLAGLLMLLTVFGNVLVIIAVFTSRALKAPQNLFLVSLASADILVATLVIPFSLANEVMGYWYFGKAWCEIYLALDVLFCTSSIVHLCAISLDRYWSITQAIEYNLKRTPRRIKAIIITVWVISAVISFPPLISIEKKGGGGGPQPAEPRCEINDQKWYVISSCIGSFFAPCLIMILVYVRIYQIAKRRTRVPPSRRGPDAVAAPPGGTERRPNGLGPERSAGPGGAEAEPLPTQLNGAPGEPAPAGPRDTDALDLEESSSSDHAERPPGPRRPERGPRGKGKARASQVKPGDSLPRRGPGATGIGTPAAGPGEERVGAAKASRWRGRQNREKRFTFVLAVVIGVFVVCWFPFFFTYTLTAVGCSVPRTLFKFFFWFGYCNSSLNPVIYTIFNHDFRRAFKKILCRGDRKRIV

Rattus norvegicus = organism: Rattus norvegicus; settings: Compound concentration 10.0 uM

Cc1nc(N2CC[C@@H](O)C2)ncc1-c1cc(C(F)(F)F)cc2[nH]ncc12 [TP-004]
inactive: residual activity [1] 77% | residual activity [2] 100% | residual activity [3] 100% | residual activity [4] 63% | residual activity [5] 100% | residual activity [6] 74% | residual activity [7] 85% | residual activity [8] 100% | residual activity [9] 86% | residual activity [10] 87% | residual activity [11] 66% | residual activity [12] 100% | residual activity [13] 89% | residual activity [14] 81% | residual activity [15] 100% | residual activity [16] 74% | residual activity [17] 61% | residual activity [18] 100% | residual activity [19] 81% | residual activity [20] 68% | residual activity [21] 81% | residual activity [22] 99% | residual activity [23] 100% | residual activity [24] 100% | residual activity [25] 78% | residual activity [26] 88% | residual activity [27] 77% | residual activity [28] 100% | residual activity [29] 77% | residual activity [30] 82% | residual activity [31] 95% | residual activity [32] 100% | residual activity [33] 91% | residual activity [34] 100% | residual activity [35] 98% | residual activity [36] 100% | residual activity [37] 66% | residual activity [38] 71% | inhibition [39] -1.83% | inhibition [40] 10.8% | inhibition [41] 7.69% | inhibition [42] 16.2% | inhibition [43] 10.6% | inhibition (Rattus norvegicus) 1.57%
